{
  "source": "patent US20120083508A1",
  "about": "“ALPHA-2B RECEPTOR AGONIST AND ANTICONVULSANT COMPOSITIONS FOR TREATING CHRONIC PAIN” (ALLERGAN, INC., priority 2006, published 2012)",
  "key": {"[1]": {"test_system": "Chung rat model of chronic pain", "test": "Chung rat model of chronic pain (allodynia reversal)", "assay_type": "in vivo", "conditions": "for PAIN REVERSAL: Compound No. 27 10 μg/kg given immediately after Gabapentin 10 mg/kg, rats; for pain relief when administered alone at the dose used in the combination: intraperitoneally, doses of Table 4 (No. 95 1 μg/kg, No. 27 10 μg/kg)"}, "[2]": {"test_system": "Chung rat model of chronic pain", "test": "Chung rat model of chronic pain (allodynia reversal)", "assay_type": "in vivo", "conditions": "for PAIN REVERSAL: rats", "protocol": "Gabapentin was administered intraperitoneally to rats at a minimally effective dose; that is, the compound was administered at a dose that, when administered alone, is the minimum dose required to relieve pain (this dose was calculated by finding, first, the dose that produced drug's maximum effect—that is, the dose that fully alleviated pain—and dividing that dose by three; the result is a dose that is slightly less than 50% of the dose that is required to produce the drug's maximum effect). The rats then immediately received one of two alpha-2B receptor agonists, Compound No. 95 and Compound No. 27, or received no additional compound, at all. […] Pain reversal was then assessed using the Chung rat model of chronic pain. The model is described by Kim and Chung, Pain, […], at 355-363 (1992) and in U.S. Pat. No. 7,091,232, both of which are incorporated by reference herein.\nThe right-hand column in Table 5 provides the P values showing statistical significance comparing the effect of the alpha-2B receptor agonist+Gabapentin to the effect of Gabapentin alone. The significance was determined using a 2-sided unpaired Student t test.\n(§1) A minimal effect is typically <50% reversal of allodynia. Optimal effects are typically >80% reversal of allodynia. Gabapentin by itself is not fully effective so its peak effect is about 62% reversal of allodynia. An ineffective intraperitoneal (IP) Gabapentin dose is 3 mg/kg. A minimally effective dose is 10 mg/kg and its peak effect is achieved with 30 mg/kg. […] Locomotor activity is determined automatically by placing the rat in a digicom analyzer chamber (Omnitech Electronic). These chambers have photocells criss-crossing the box that are broken as the animal moves around. The computer analyses this movement and records total activity over 5-minute time periods."}, "locomotor activity": {"test_system": "locomotor activity", "test": "Locomotor / exploratory activity in a novel chamber (digicom analyzer)", "assay_type": "in vivo, rat", "protocol": "as §1"}, "[3]": {"conditions": "IP 1 ug/kg + Gabapentin 10 mg/kg"}},
  "data": [
    {"molecule": "C1=NC(CC2CCc3ccccc3C2)CN1", "note": "(stereo not drawn) [Compound 27]", "values": [
      {"measurement": "PAIN REVERSAL", "setting": "[1]", "value": 78, "unit": "%"},
      {"measurement": "PAIN REVERSAL", "setting": "[1]; listed as Compound No. 27", "value": 78, "unit": "%"},
      {"measurement": "% Allodynia Reversal (30 min peak)", "setting": "[1]; IP 10 ug/kg + Gabapentin 10 mg/kg", "value": "77.50 ± 4.7", "unit": "%"},
      {"measurement": "% Allodynia Reversal (30 min peak)", "setting": "[1]; IP, 10 ug/kg, alone", "value": "43.75 ± 7.4", "unit": "%"},
      {"measurement": "% Allodynia Reversal (30 min peak)", "setting": "[1]; IP, 30 ug/kg, alone", "value": "74.59 ± 7.4", "unit": "%"},
      {"measurement": "% Allodynia Reversal (30 min peak)", "setting": "[1]; IP, 100 ug/kg, alone", "value": "90.86 ± 5.9", "unit": "%"},
      {"measurement": "pain relief when administered alone at the dose used in the combination", "setting": "[1]; alone", "value": "not effective in relieving pain"}
    ]},
    {"molecule": "NCC1(CC(=O)O)CCCCC1", "note": "[Gabapentin]", "values": [
      {"measurement": "peak effect, reversal of allodynia", "setting": "[1]; Gabapentin by itself, IP, peak effect achieved with 30 mg/kg", "value": "about 62%"},
      {"measurement": "% Allodynia Reversal (30 min peak)", "setting": "[1]; IP, 1 mg/kg, alone", "value": "5.89 ± 1.3", "unit": "%"},
      {"measurement": "dose at which peak effect is achieved", "setting": "[1]; IP, alone", "value": 30, "unit": "mg/kg"},
      {"measurement": "ineffective intraperitoneal (IP) dose", "setting": "[1]; IP, alone", "value": 3, "unit": "mg/kg"},
      {"measurement": "minimally effective dose", "setting": "[1]; IP, alone, minimal effect is <50% reversal of allodynia", "value": 10, "unit": "mg/kg"},
      {"measurement": "PAIN REVERSAL", "setting": "[2]; Gabapentin 10 mg/kg intraperitoneally, alone", "value": 45, "unit": "%"},
      {"measurement": "PAIN REVERSAL", "setting": "[2]; Gabapentin 10 mg/kg intraperitoneally, alone, listed as gabapentin", "value": 45, "unit": "%"},
      {"measurement": "% Allodynia Reversal (30 min peak)", "setting": "[2]; IP, 10 mg/kg, alone", "value": "40.8 ± 9.3", "unit": "%"},
      {"measurement": "% Allodynia Reversal (30 min peak)", "setting": "[2]; IP, 30 mg/kg, alone", "value": "61.56 ± 5.7", "unit": "%"},
      {"measurement": "sedative effects (locomotor activity)", "setting": "locomotor activity; 100 mg/kg", "value": "significantly reduced locomotor activity"},
      {"measurement": "reduction in exploratory activity compared to vehicle treated rats", "setting": "locomotor activity; 100 mg/kg intraperitoneally 15 minutes before novel chamber, between 40-60 minutes after dosing", "value": "> 50", "unit": "%"}
    ]},
    {"molecule": "OCCNC(=S)NCc1cccc(Cl)c1F", "note": "[Compound 131]", "values": [
      {"measurement": "% Allodynia Reversal (30 min peak)", "setting": "[1]; IP, 1 ug/kg, alone", "value": "3.92 ± 1.8", "unit": "%"},
      {"measurement": "% Allodynia Reversal (30 min peak)", "setting": "[1]; IP, 3 ug/kg, alone", "value": "54.67 ± 6.1", "unit": "%"},
      {"measurement": "% Allodynia Reversal (30 min peak)", "setting": "[1]; IP, 10 ug/kg, alone", "value": "85.24 ± 6.0", "unit": "%"},
      {"measurement": "% Allodynia Reversal (30 min peak)", "setting": "[1]; IP, 30 ug/kg, alone", "value": "90.04 ± 6.1", "unit": "%"},
      {"measurement": "% Allodynia Reversal (30 min peak)", "setting": "[1]; IP, 100 ug/kg, alone", "value": "95.31 ± 4.7", "unit": "%"},
      {"measurement": "% Allodynia Reversal (30 min peak)", "setting": "[1]; IP, 300 ug/kg, alone", "value": "91.7 ± 5.3", "unit": "%"},
      {"measurement": "% Allodynia Reversal (30 min peak)", "setting": "[2]; [3]", "value": "88.00 ± 5.4", "unit": "%"}
    ]},
    {"molecule": "C[C@@H](c1c[nH]c(=S)[nH]1)c1cccc2ncccc12", "note": "[Compound 95]", "values": [
      {"measurement": "% Allodynia Reversal (30 min peak)", "setting": "[1]; [3]", "value": "75.46 ± 5.3", "unit": "%"},
      {"measurement": "% Allodynia Reversal (30 min peak)", "setting": "[1]; PO, 1 ug/kg, alone", "value": "1.52 ± 1.0", "unit": "%"},
      {"measurement": "% Allodynia Reversal (30 min peak)", "setting": "[1]; PO, 3 ug/kg, alone", "value": "58.21 ± 5.3", "unit": "%"},
      {"measurement": "% Allodynia Reversal (30 min peak)", "setting": "[1]; PO, 10 ug/kg, alone", "value": "78.43 ± 4.6", "unit": "%"},
      {"measurement": "% Allodynia Reversal (30 min peak)", "setting": "[1]; PO, 30 ug/kg, alone", "value": "81.53 ± 6.2", "unit": "%"},
      {"measurement": "% Allodynia Reversal (30 min peak)", "setting": "[1]; PO, 100 ug/kg, alone", "value": "81.26 ± 8.8", "unit": "%"},
      {"measurement": "pain relief when administered alone at the dose used in the combination", "setting": "[1]; alone", "value": "not effective in relieving pain"},
      {"measurement": "PAIN REVERSAL", "setting": "[2]; Compound No. 95 1 μg/kg given immediately after Gabapentin 10 mg/kg", "value": 75, "unit": "%"}
    ]}
  ]
}
